Like-named read-outs stand apart in the source and are kept apart here. Values belong to the compound of their own block, whether it stands above or below them.
Assays:
[1] = target: T1, LPAR1 (Homo sapiens, UniProt Q92633); experiment: Cell calcium flux assay (antagonist mode, LPA at EC80, FLIPR); assay type: cell-based
T1 construct: expressed in transfected cells; host or cells: CHO (CHO-LPA1 cells)
Description: • 1) The test compound was diluted to a 400X stock solution with DMSO in a 384-well plate. • 2) 1 µl of compound solution from step 1 was transferred into 39 ul of assay buffer to prepare a 10X working solution in a 384-well plate using a Bravo automated liquid handling platform. • 3) CHO-LPA1 cells were cultured in F12 medium (10% FBS). • 4) When cells reached 80% confluence, the cells were dissociated using 0.25% trypsin-EDTA. • 5) Cell density was determined and the cells were diluted to 4x10e5/ml using F12 (10% FBS). • 6) 30 µl of the cell suspension was dispensed into a 384-well plate (corning 3764#) using a multidrop automated dispenser, resulting in 12,000 cells per well. The plate was incubated at 37°C with 5% CO2 for 18-20 hours. • 7) The medium was replaced with 25 uL of serum-free medium and incubated overnight. • 8) 10 ul of 3.5X loading dye was added to each well of the cell plate. The plate was incubated in the dark at 37°C with 5% CO2 for 0.5-1 hours. • 9) After incubation, 5 µl of the 10X working solution from step 2 was transferred to the cell plate. • 10) The cell plate was incubated in the dark at 25°C for 15 minutes, and then the calcium signals were read. • 11) A 5X agonist (LPA) working solution in 1X HBSS+20 mM HEPES+0.1% BSA was prepared in a 384-well assay plate (greiner 784075#), with at least 20 µl per well. The agonist concentration used in this assay was determined based on the dose-response curve from a prior agonist mode experiment, with the EC80 value serving as the final agonist concentration. • 12) Data were read and saved using FLIPR at room temperature with the specified settings. • 13) The signal values were plotted against compound concentrations, and the curve fitting was performed and the IC50 values were calculated using nonlinear regression analysis in GraphPad Prism software.
IC50 values are represented by grades A, B, C, and D, where A represents 0 < IC50 ≤ 10 nM, B represents 10 nM < IC50 ≤ 50 nM, C represents 50 nM < IC50 ≤ 100 nM, and D represents IC50 > 100 nM. Table 1 Antagonistic activity of the compounds of the present invention against LPAR1

[2] = Pharmacokinetic test in rats; assay type: in vivo, SD rats; settings: for Vd: read-out: Vdss
Description: 3.1. Experimental animals: Male SD rats, about 220 g, 6-8 weeks old, 6 rats/compound, purchased from Chengdu Ddossy Experimental Animals Co., Ltd.
3.2. Experimental design: On the day of the experiment, the SD rats were randomly grouped according to their body weights. The animals were fasted with water available for 12-14 h one day before the administration, and were fed 4 h after the administration. Table 4. Administration information
(§1) Before and after administration, 0.15 mL of blood was taken from the orbit under isoflurane anaesthesia and placed in an EDTAK2 centrifuge tube. The tube was centrifuged at 5000 rpm at 4°C for 10 min, and plasma was collected. Before analysis and detection, all samples were stored at -80°C, and the samples were quantitatively analysed by LC-MS/MS. Table 5. Pharmacokinetic parameters of test compound in plasma of rats

[3] = Pharmacokinetic test in mice; assay type: in vivo, C57 mice
Description: 2.1 Experimental animals: Male C57 mice, 20-25 g, 6 mice/compound, purchased from Chengdu Ddossy Experimental Animals Co., Ltd.
2.2 Experimental design: On the day of the experiment, the C57 mice were randomly grouped according to their body weights. The animals were fasted with water available for 12-14 h one day before the administration, and were fed 4 h after the administration. Table 2. Administration information
as §1, with “0.06” for “0.15”, “collected. The blood collection time points for the intravenous administration group and oral gavage administration group were: 0 min, 5 min, 15 min, 30 min, 1 h, 2 h, 4 h, 6 h, 8 h, and 24 h.” for “collected.”, “3.” for “5.”, “compounds” for “compound”, “mice” for “rats”

[4] = CHO-LPA1 cells, calcium flux, grades, read-out: LPAR1 IC50
[5] = antagonistic activity against the LPAR1 receptor, read-out: IC50 values
[6] = rat, iv, rats, i.v. (1 mg/kg), plasma
[7] = rat, po, rats, i.g. (3 mg/kg), plasma
[8] = mouse, iv, mice, i.v. (1 mg/kg), plasma

T1 sequence (Q92633 whole entry): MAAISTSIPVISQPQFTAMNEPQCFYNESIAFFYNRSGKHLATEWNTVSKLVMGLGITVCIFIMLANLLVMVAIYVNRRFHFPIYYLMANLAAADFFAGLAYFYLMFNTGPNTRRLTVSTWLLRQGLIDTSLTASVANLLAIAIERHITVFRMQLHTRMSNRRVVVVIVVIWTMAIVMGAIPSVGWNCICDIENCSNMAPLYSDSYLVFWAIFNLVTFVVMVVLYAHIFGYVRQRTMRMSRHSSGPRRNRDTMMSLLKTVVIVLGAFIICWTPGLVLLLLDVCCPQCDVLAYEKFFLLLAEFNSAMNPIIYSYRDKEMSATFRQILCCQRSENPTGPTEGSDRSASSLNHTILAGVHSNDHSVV

- IC50 [1, 4]: < 10 nM
Compound: Cc1nc(-c2nnn(C)c2COC(=O)N(C)[C@H]2C[C@H](OC(F)F)C2)ccc1O[C@H]1CCC[C@H](C(=O)O)C1 [Compound 40]

- IC50 [1, 4]: < 10 nM
- IC50 [1, 5]: 2 nM
Compound: CC=C1CC(N(C)C(=O)OCc2c(-c3ccc(O[C@H]4CCC[C@H](C(=O)O)C4)c(C)n3)nnn2C)C1 (stereo partly drawn) [Compound 7]

- IC50 [1, 4]: < 10 nM
Compound: Cc1nc(-c2nnn(C)c2COC(=O)N(C)CCSC(F)(F)F)ccc1O[C@H]1CCC[C@H](C(=O)O)C1 [Compound 28]

Compound: C=C1CC(N(C)C(=O)OCc2c(-c3ccc(OCC4C(C(=O)O)C4(F)F)c(C)n3)nnn2C)C1 (stereo not drawn) [Compound 25]
- IC50 [1, 4]: < 10 nM

- IC50 [1, 4]: < 10 nM
Compound: Cc1nc(-c2nnn(C)c2COC(=O)N(C)CCOC(F)(F)F)ccc1O[C@H]1CCC[C@H](C(=O)O)C1 [Compound 14]

- IC50 [1, 4]: 10 to 50 nM
Compound: Cc1nc(-c2nnn(C)c2COC(=O)N(C)CC2CC(=C(F)F)C2)ccc1O[C@H]1CCC[C@H](C(=O)O)C1 (stereo partly drawn) [Compound 13]

- IC50 [1, 4]: < 10 nM
Compound: Cc1nc(-c2nnn(C)c2CNC(=O)OCC2CC(=C(F)F)C2)ccc1O[C@H]1CCC[C@H](C(=O)O)C1 (stereo partly drawn) [Compound 23]

- IC50 [1, 4]: < 10 nM
Compound: C=C1CC(CN(C)C(=O)OCc2c(-c3ccc(NC(=O)C4C(C(=O)O)C4(F)F)c(C)n3)nnn2C)C1 (single isomer, unassigned) [Compound 35-2]

- IC50 [1, 4]: < 10 nM
Compound: C=C1CC(N(C)C(=O)OCc2c(-c3ccc(NC(=O)C4C(C(=O)O)C4(F)F)c(C)n3)nnn2C)C1 (single isomer, unassigned) [Compound 34-2]

- IC50 [1, 4]: < 10 nM
Compound: Cc1nc(-c2nnn(C)c2COC(=O)N(C)[C@H]2C[C@@H](OC(F)F)C2)ccc1O[C@H]1CCC[C@H](C(=O)O)C1 [Compound 39]

- IC50 [1, 4]: < 10 nM
Compound: Cc1nc(-c2nnn(C)c2COC(=O)N(C)[C@H]2C[C@@H](OC(F)(F)F)C2)ccc1O[C@H]1CCC[C@H](C(=O)O)C1 [Compound 30]

Compound: C=C1CCC(CN(C)C(=O)OCc2c(-c3ccc(O[C@H]4CCC[C@H](C(=O)O)C4)c(C)n3)nnn2C)CC1 [Compound 19]
- IC50 [1, 4]: < 10 nM
- IC50 [1, 5]: 2 nM

Compound: Cc1nc(-c2nnn(C)c2CNC(=O)OC2CC(=C(F)F)C2)ccc1OCCC1(C(=O)O)CC1 (stereo not drawn) [Compound 47]
- AUC(0-t) [2, 6]: 2850 ± 532 ng·h/mL
- clearance [2, 6]: 5.95 ± 1.2 mL/min/kg
- Vd [2, 6]: 0.825 ± 0.027 L/kg
- bioavailability ([2]; rat, plasma, po, rats, i.g. (3 mg/kg)): ≥ 98%
- AUC(0-t) [2, 7]: 12600 ± 1320 ng·h/mL
- C0 or Cmax ([2]; rats, i.g. (3 mg/kg), plasma): 3060 ± 457 ng/mL
- C0 or Cmax ([2]; rats, i.v. (1 mg/kg), plasma): 3233 ± 495 ng/mL
- pharmacokinetic characteristics in mice ([3]; conclusion in words): excellent pharmacokinetic characteristics
- C0 or Cmax ([3]; mice, i.g. (3 mg/kg), plasma): 566 ± 122 ng/mL
- C0 or Cmax ([3]; mice, i.v. (1 mg/kg), plasma): 1361 ± 179 ng/mL
- AUC(0-t) [3, 8]: 1000 ± 333 ng·h/mL
- clearance [3, 8]: 16.8 ± 5.7 mL/min/kg
- Vd ([3]; mouse, iv, mice, i.v. (1 mg/kg), plasma, read-out: Vdss): 5.4 ± 1.4 L/kg
- bioavailability ([3]; mouse, plasma, po, mice, i.g. (3 mg/kg)): 91.3%
- AUC(0-t) ([3]; mouse, po, mice, i.g. (3 mg/kg), plasma): 2740 ± 325 ng·h/mL

Compound: C=C1CC(N(C)C(=O)OCc2c(-c3ccc(OCC(C)(C)CC(=O)O)c(C)n3)nnn2C)C1 [Compound 29]
- IC50 [1, 4]: < 10 nM
- pharmacokinetic characteristics in rats ([2]; conclusion in words): good pharmacokinetic characteristics
- AUC(0-t) [2, 6]: 1090 ± 208 ng·h/mL
- clearance [2, 6]: 15 ± 2.7 mL/min/kg
- Vd [2, 6]: 3.53 ± 1.6 L/kg
- AUC(0-t) [2, 7]: 2540 ± 679 ng·h/mL
- C0 or Cmax ([2]; rats, i.g. (3 mg/kg), plasma): 739 ± 29 ng/mL
- C0 or Cmax ([2]; rats, i.v. (1 mg/kg), plasma): 2324 ± 170 ng/mL

- IC50 [1, 4]: < 10 nM
- IC50 [1, 5]: 2 nM
Compound: C=C1CC(CN(C)C(=O)OCc2c(-c3ccc(O[C@H]4CCC[C@H](C(=O)O)C4)c(C)n3)nnn2C)C1 [Compound 5]
